Results published in patent US5814634A, “Alkylenediamine derivative anti-ulcer drug and antibacterial drug” (Shiseido Co. Ltd., priority 1996, dated 1998).
Read-outs that look alike come from different tables or passages of the source.

What was measured:
gastric mucosa = assay: PD: Gastric Mucosal Integrity Test (gastric mucosal potential difference); assay type: in vivo, rat (male Crj:SD); design: key: 5: Same as the control with no recognizable damage at all.; 4: Though a slight PD-decreasing tendency suggesting a slight possibility of mucosal damage is found, there is no problem.; 3: Though a weak decrease in PD and a possibility of a weak mucosal damage is recognized, there is no substantial problem.; 2: Medium degree of decrease in PD is found and a mucosal damage is recognized.; 1: Heavy degree of decrease in PD is found and a remarkable mucosal damage is recognized; conditions: 100 mg/kg into chamber, rats, 60 minutes
Procedure: PD: Gastric Mucosal Integrity Test
In this case, since the sample compound has a necrotizing effect, it is inappropriate as an anti-ulcer medicament.
Therefore, the gastric mucosal potential difference (PD), which reflects the integrity of the gastric mucosa, is measured so as to confirm that the sample compound has no damaging effect on gastric mucosa, which is toxicity at gastric mucosal level.
Male Crj:SD rats (7 to 8-week-old) were fasted overnight, but allowed free access to water, and then, under urethane anesthesia (1.25 g/kg, i.p.), fixed to a cork board on its back. The abdomen of each rat was incised, and a small incision was made in the forestomach. Then, the inside of the stomach was washed with physiological saline heated at 37° C. From the forestomach, along the greater curvature thereof, the stomach was incised without damaging blood vessels. After the height of the cork board was adjusted on a jack, the stomach was mounted on ex vivo chamber. The area of the gastric mucosa exposed to the inside of this chamber was 2.5 cm^2. The inside of the chamber was perfused with physiological saline warmed at 37° C. by micro tube pump. By using an agar bridge containing 3M KCl, the potential difference between the chamber and the abdominal cavity was measured by a PD meter. Here, the rectal temperature was measured to control the body temperature during the experiment. After the PD was sufficiently stabilized, the perfusate was stopped and then 100 mg/10 ml/kg of the sample compound dissolved or suspended in an aqueous solution of 0.5% sodium carboxymethyl cellulose or 0.05% Tween 80 was administered into the chamber, while PD was recorded for 60 minutes. To a control, the vehicle was administered.
The change in PD during 60 minutes after the administration of 100 mg/kg of the sample compound was collectively studied and, with reference to the positive control, classified into 5 levels as follows:
5: Same as the control with no recognizable damage at all.
3: Though a weak decrease in PD and a possibility of a weak mucosal damage is recognized, there is no substantial problem.
2: Medium degree of decrease in PD is found and a mucosal damage is recognized.
1: Heavy degree of decrease in PD is found and a remarkable mucosal damage is recognized.

[1] = system: isolated gastric fundic gland; assay: CAP: Acid Secretion Inhibition Test In Vitro ([14C]-aminopyrine uptake); assay type: cell-based, rabbit (male Japanese White); conditions: Oryctolagus cuniculus, 40 min, read-out: CAP: acid secretion inhibitory rate
Procedure: (§1) With respect to the gastric juice volume (VOL) and the total acid output (TAO), the effects obtained when 100 mg/kg of the sample compound had been administered were expressed as their respective inhibitory rates (%) as follows: [formula] CAP: Acid Secretion Inhibition Test In Vitro i) Meaning
The acid secretion inhibitory activity in a cell level is studied. It can also be used for studying the mechanism of the effect.
ii-a) Preparation of isolated gastric fundus gland suspension
First, an isolated gastric fundic gland sample was prepared. […] Immediately thereafter, the stomach was removed and, after its pyloric and cardiac antrum were severed, incised along its greater curvature into two sheets. The gastric contents adhering to the mucosal surface was washed out with ice-cooled PBS (-) and then carefully washed therein. The gastric wall was spread on a cork board with its mucosal surface facing up and the feed and mucus thereon were completely removed with sterile gauze. The mucosa was separated therefrom by a spatula and then collected in ice-cooled PBS (-). After being washed twice with PBS (-), the mucosa was minced into 2-3 mm^3 pieces by scissors. These pieces were further washed twice with a nutrient solution. The nutrient solution comprises 132.4 mM of NaCl, 5.4 mM of KCl, 5 mM of Na2 HPO4.12H2 O, 1 mM of NaH2 PO4.2H2 O, 1.2 mM of MgSO4, 1 mM of CaCl2, 25 mM of HEPES, 2 mg/ml of glucose, and 1 mg/ml of BSA. Into 70 ml of the nutrient solution containing 1 mg/ml of collagenase, minced mucosal pieces were dispersed and intensely stirred in a conical flask with a stirrer at 37° C. for 40 to 60 minutes. During this period, 100% O2 was sprayed on the nutrient solution surface and the pH was appropriately measured such that it was immediately adjusted to pH 7.4, when the value was therebelow, with a base. The nutrient solution was added to the reaction solution so as to attain the total amount of about 200 ml. After being filtered through a mesh, the suspension was divisionally introduced into 50 ml centrifuge tubes and left for 15 minutes such that gastric fundic gland was deposited. The supernatant was repeatedly removed by an aspirator, dispersed in the nutrient solution, and then left such that the gastric fundic gland was washed three times. At this time, without using a pipette, the suspension was alternately introduced into two centrifuge tubes so as to effect dispersion. The number of cells was counted under microscope and adjusted to 1.6×10^6 cells/ml.
ii-b) [^14 C]-aminopyrine uptake test
Then, [^14 C]-aminopyrine uptake test was performed. After an Eppendorf tube was weighed, 10 μl (final concentration: 10^-5 M) of histamine dissolved in the above-mentioned nutrient solution, 10 μl (final concentration: 10^-5 M) of the test compound dissolved in DMSO, and 10 μl (final concentration: 0.05 μCi/ml) of [^14 C]-aminopyrine diluted with the nutrient solution were introduced therein and then 970 μl of the isolated gastric fundic gland suspension prepared above was added thereto. Subsequently, this mixture was shaken at 37° C. for 40 minutes at 125 cycles/minute. After being centrifuged for 30 minutes, 200 μl of its supernatant was collected into a mini-vial, while the rest was removed by an aspirator. The gland pellet was completely dried as the tube with its lid being opened was kept for one night in a drying oven at 80° C. and then the lid was closed and the weight was determined at room temperature. Then 100 μl of 1N KOH was added thereto and the tube with its lid being closed was treated at 60° C. for 1 to 2 hours so as to dissolve the pellet. Then, the contents thereof were transferred to a mini-vial. Into the mini-vial containing the supernatant or gland pellet, 4 ml of Atomlite™ was added and then the radioactivity was measured by a liquid scintillation counter. […]

stress ulcer = assay: WIS: Restraint and Water Immersion Stress-Induced Ulcer Inhibition Test; assay type: in vivo, rat (male Crj:SD or Slc:SD); conditions: 100 mg/kg oral, rats, water immersion stress 7 hours
Procedure: WIS: Restraint and Water Immersion Stress-Induced Ulcer Inhibition Test
The degree of inhibition of the stress ulcer formation is tested.
Male Crj:SD or Slc:SD rats (6 to 7-week-old) were fasted overnight, but allowed free access to water. Each group has 5 to 8 of these rats. The sample compound was dissolved or suspended in an aqueous solution of 0.3% sodium carboxymethylcellulose or 0.05% Tween 80 and then was orally administered (100 mg/10 ml/kg). To a control group, the vehicle was administered. 10 minutes later, the rats were placed in a stress cage and immersed to the level of xipfoid process in a water bath (21° C.) for 7 hours. At the end of the stress, the rats were sacrificed by inhalation of ether or carbon dioxide. Then, the stomach of each was removed, inflated by injecting 10 ml of 5% formalin neutral buffer solution, and immersed in 1% formalin neutral buffer solution for 30 minutes or more to be fixed. The stomach was incised along the greater curvature and then the length of each erosion in the glandular portion was determined under dissecting microscope. The sum of the length of erosions per stomach was defined as ulcer index (UI).
(§2) The effect obtained when 100 mg/kg of the sample compound had been administered was expressed as ulcer formation inhibitory rate (%) as follows: [formula] VOL, TAO: Acid Secretion Inhibition Test In Vivo i) Meaning

Male Slc:ICR mice = system: Male Slc:ICR mice; design: species or system mouse (male Slc:ICR); conditions: mouse, in vivo
Procedure: AT: Single Dose Toxicity Pretest
Male Slc:ICR mice (5-week-old) were used. Each group has 3 to 5 mice and each mouse was fasted, but allowed free access to water, for 4 to 5 hours from 9 a.m. in the test day. Then, 2,000 mg/10 ml/kg of the sample compound dissolved or suspended in an aqueous solution of 0.5% sodium carboxymethyl cellulose was orally administered thereto. To a control, only the vehicle was administered. […] The body weight was measured before and after the fasting as well as at the same time everyday. The dead animals were immediately subjected to autopsy and their organs were observed microscopically. Also, the living animals were sacrificed with ether or carbon dioxide one week after the administration and then their organs were observed microscopically.
The toxicity at the single dose of 2,000 mg/kg of the sample compound was expressed as being classified into 5 levels.
5: Mortality rate is 0%; no toxicity is found at all both in behavior and organs.
4: Mortality rate is 0%; while no toxicity is found in organs, slight toxicity is observed in behavior and body weight increase.
3: While there is a dead animal (though not all the animals are dead), no toxicity is found in organs.
2: Regardless of whether there is a dead animal or not, toxicity is found in organs.
1: All the animals are dead.

[2] = MTT: Cell Damaging and Protecting Effect Test; conditions: rabbit, gastric mucosal cells
acid secretion in vivo = assay: VOL, TAO: Acid Secretion Inhibition Test In Vivo; design: species or system rat (male Crj:Donryu); conditions: 100 mg/kg oral, pylorus-ligated rats, histamine 30 mg/kg s.c.
Procedure: as §2
Inhibitory effect on acid secretion in vivo is confirmed.
Male Crj:Donryu rats (7-week-old) were fasted overnight but allowed free access to water. In each group, 8 to 10 of these rats were used under urethane anesthesia (1.25 g/kg). The sample compound dissolved or suspended in an aqueous solution of 0.5% sodium carboxymethylcellulose or 0.05% Tween 80 was orally administered (100 mg/10 ml/kg). 30 minutes later, the abdomen of each was incised and the pylorus was ligated. 30 minutes after the ligation, 30 mg/kg of histamine dissolved in physiological saline was subcutaneously administered and, 3 hours thereafter, the rat was sacrificed with carbon dioxide. Immediately thereafter, each stomach was removed and the gastric contents were collected and each volume was determined. The total acid output was determined by titration of the gastric juice with 0.1N NaOH.
as §1

Helicobacter pyroli = assay: AHP: Antibacterial Activity Test Against Helicobacter pyroli (agar dilution MIC); assay type: cell-based, Helicobacter pyroli NCTC 11637; conditions: for MIC: Helicobacter, NCTC11637, 168 h, HP NCTC 11637, brucella agar with 5% horse blood, 7 days, read-out: AHP: minimum inhibitory concentration (MIC)
Procedure: Antibacterial Activity Test Against Helicobacter pyroli i) Meaning The minimum inhibitory concentration (MIC) against Helicobacter pyroli (microaerophilic gram-negative bacterium which is supposed to deeply involve in pathogenesis, relapse, and recrudescence of ulcer, referred to as "HP" in the following) is measured so as to find out compounds which have antimicrobial activity against Helicobacter pyroli. ii) Method MICs were determined by the agar dilution method. The stock culture (-80° C.) of HP NCTC 11637 was thawed and cultured on tripticase soy agar supplemented with 5% sheep blood at 37° C. in an atmosphere of 5% O2, 10% CO2, and 85% N2. Grown colonies were transferred to the same plate and precultured for 3 days under the same condition. […] 10 μl of the bacterial suspension for inoculation (about 10^3 cfu) was inoculated on this plate and cultured for 7 days under the same condition as that of preculture.

in vitro = conditions: rabbit, gastric mucosal cells
[3] = system: gastric corpus mucosa cells; conditions: rabbit, gastric mucosal cells, 4 h, 100 µM
[4] = 10^-5 M compound, 10^-5 M histamine, rabbit isolated gastric fundic gland, 37° C., 40 minutes

Compound: CC(C)=CCC/C(C)=C/CC/C(C)=C/COc1ccc(C(=O)NCCN2CCCCC2)cc1 [Example 10]
- PD: change in gastric mucosal potential difference, 5 levels (gastric mucosa): 5
- inhibition at 10 µM [1, 4]: 98%
- WIS: ulcer formation inhibitory rate (stress ulcer): 47%
- AT: toxicity at single dose, 5 levels (Male Slc:ICR mice): 4

Compound: CC(C)=CCC/C(C)=C/COc1ccc(C(=O)NCCN2CCN(CC(=O)N3CCCC3)CC2)cc1 [Example 55]
- inhibition at 10 µM [1]: 99.2%
- cytotoxicity at 4 h, 100 µM [2]: 27%

Compound: CC(C)=CCC/C(C)=C/COc1ccc(C(=O)NCCN2CCCCC2)cc1 [Example 3]
- TAO: total acid output inhibitory rate (acid secretion in vivo): 85%
- VOL: gastric juice volume inhibitory rate (acid secretion in vivo): 68%
- inhibition at 10 µM [1, 4]: 100%
- WIS: ulcer formation inhibitory rate (stress ulcer): 79%
- AT: toxicity at single dose, 5 levels (Male Slc:ICR mice): 4

Compound: CC(C)Cc1cc(C(=O)NCCN2CCN(CC(C)C)CC2)ccc1OCc1ccc(F)cc1 [Example 62]
- inhibition at 10 µM [1, 4]: 102%
- MIC (Helicobacter pyroli): < 3.13 µg/mL
- WIS: ulcer formation inhibitory rate (stress ulcer): 77%
- AT: toxicity at single dose, 5 levels (Male Slc:ICR mice): 3

Compound: CC(C)=CCC/C(C)=C/COc1ccc(C(=O)NCCN2CCN(CC(C)C)CC2)cc1 [Example 46]
- TAO: total acid output inhibitory rate (acid secretion in vivo): 34%
- VOL: gastric juice volume inhibitory rate (acid secretion in vivo): 33%
- inhibition at 10 µM [1, 4]: 100%
- cytotoxicity at 4 h, 100 µM (in vitro): 68%
- WIS: ulcer formation inhibitory rate (stress ulcer): 78%

Compound: CC(C)=CCCC(C)=CCOc1ccc(C(=O)NCCN2CC(C)OC(C)C2)cc1 (stereo not drawn) [Example 34]
- MTT: cell damaging rate [3]: 14%
- WIS: ulcer formation inhibitory rate (stress ulcer): 38%

Compound: CC(C)=CCC/C(C)=C/COc1ccc(C(=O)NCCN2CCN(c3nc4ccccc4s3)CC2)cc1 [Example 59]
- inhibition at 10 µM [1, 4]: 93%
- cytotoxicity at 4 h, 100 µM (in vitro): 7%
- MIC (Helicobacter pyroli): < 3.13 µg/mL
- antibacterial activity against Helicobacter pyroli (Helicobacter pyroli; result in words): having an antibacterial activity against Helicobacter pyroli
- WIS: ulcer formation inhibitory rate (stress ulcer): 47%
